For this test, the system named is NLRP3 inflammasome pathway. Kind of test: NLRP3 inflammasome pathway activation assay, MSU stimulation, IL-1β HTRF. In kind it is cell-based. The note with it: read-out: IC50 Human monocyte-like cells MSU. Here is the method:
The following assays were used to determine the inhibitory activity of test compounds on the NLRP3 inflammasome pathway using common stimuli Nigericin (Invivogen) or monosodium urate crystals (MSU) (Invivogen).
Human monocyte-like cells were cultured in RPMI-1640 Glutamax medium supplemented with 10% heat inactivated FBS (Fetal Bovine Serum) and 50 U/mL penicillin-streptomycin (Life Technologies).
Human monocyte-like cells were seeded at 25000 per well in a 384-well plate and were differentiated overnight into macrophages with 10 ng/mL PMA (Phorbol Myristate Acetate). The following day, medium containing 10 ng/mL LPS (Lipopolysaccharide) was added. After 3 hours of LPS priming, concentrations of test compound in the range from […] were added 30 min prior to NLRP3 inflammasome pathway stimulation with Nigericin 3.75 μM or MSU 200 μg/mL for 3 h.
For IL-1p quantification, supernatants were analyzed using HTRF kit according to the manufacturer's instructions (Cisbio 62HIL1BPEH). Briefly, in a 384-well ProxiPlate™ microplate, 8 μl of sample was mixed, with 5 μl of Anti-IL1β Cryptate antibody (40×) and Anti-IL1β XL antibody (40×). Then, incubated overnight at RT. Reading was done using an EnVision Reader (PerkinElmer).
IC50 (concentration corresponding to 50% inhibition) were determined using GraphPad Prism 9.
On the technique in general: Time-resolved FRET reads energy transfer from a long-lived donor to a nearby acceptor.

Where [1] appears, read: Homo sapiens, 3 h, Table 7, PMA-differentiated, LPS-primed cells, MSU 200 μg/mL for 3 h, IL-1β release.
Where [2] appears, read: Table 7, PMA-differentiated, LPS-primed cells, MSU 200 μg/mL for 3 h, IL-1β release.

Where a name gives a salt, the structure may show the parent alone. Read-outs that look alike come from different tables or passages of the source.

In general, IC50 refers to the concentration that inhibits the measured activity by half. For the molecule `Cc1cc(Cl)cc(O)c1-c1nc2nc(OCC(F)(F)F)ccc2n1C` [Example 38, 5-chloro-3-methyl-2-(1-methyl-5-(2,2,2-trifluoroethoxy)-1H-imidazo[45-b]pyridin-2-yl)phenol], the IC50 under setting [1] fell in the range of 100 to 1000 nM.

On to `Cc1cc(Cl)cc(O)c1-c1nc2nc(N[C@@H]3CCN(C)C3)c(F)cc2n1C` [Example 47, (R)-5-chloro-2-(6-fluoro-1-methyl-5-((1-methylpyrrolidin-3-yl)amino)-1H-imidazo[4,5-b]pyridin-2-yl)-3-methylphenol formate Salt], for which the 50% inhibitory concentration (IC50) under setting [1] is less than 100 nM.

`Cc1cc(Cl)cc(O)c1-c1nc2nc(N3CCC(O)C3)cnc2n1C` (single isomer, unassigned) [Example 85A]: the IC50 under setting [1] was less than 100 nM.

Turning to `COc1cnc2c(n1)nc(-c1c(C)cc(Cl)cc1O)n2C` [Example 59, 5-chloro-2-(5-methoxy-1-methyl-imidazo[4,5-b]pyrazin-2-yl)-3-methyl-phenol formate Salt], under setting [1], the IC50 is less than 100 nM.

On to `Cc1cc(C(F)(F)F)cc(O)c1-c1nc2nc(NC3CCN(C)C3)ccc2n1C(C)C` (centres unmarked) [Example 10, 2-(1-isopropyl-5-((1-methylpyrrolidin-3-yl)amino)-1H-imidazo[4,5-b]pyridin-2-yl)-3-methyl-5-(trifluoromethyl)phenol], for which the IC50 under setting [1] is less than 100 nM.

In the case of `OCCNc1ccc2cn(-c3ccc(C(F)(F)F)cc3O)nc2n1` [Example 48, 2-(6-((2-hydroxyethyl)amino)-2H-pyrazolo[3,4-b]pyridin-2-yl)-5-(trifluoromethyl)phenol], the IC50 under setting [1] was 100 to 1000 nM.

As to `Cc1cc(C(F)(F)F)cc(O)c1-c1nc2nc(N3CCOCC3)ccc2n1C` [Example 79, 3-methyl-2-(1-methyl-5-morpholino-imidazo[4,5-b]pyridin-2-yl)-5-(trifluoromethyl)phenol], under setting [1], the IC50 is less than 100 nM.

Regarding `CCn1c(-c2c(C)cc(C(F)(F)F)cc2O)nc2nc(NC3CCN(C)C3)ccc21` (single isomer, unassigned) [Example 8, 2-(1-ethyl-5-((1-methylpyrrolidin-3-yl)amino)-1H-imidazo[4,5-b]pyridin-2-yl)-3-methyl-5-(trifluoromethyl)phenol], under setting [1], the IC50 is less than 100 nM.

In the case of `Cc1cc(Cl)cc(O)c1-c1nc2nc(C(F)(F)F)ccc2n1C` [Examples 50], the IC50 under setting [1] was in the range of 100 to 1000 nM.

With `Cc1cc(Cl)cc(O)c1-c1nc2nc(N3CCC(O)CC3)cnc2n1C` [Example 78, 1-[2-(4-chloro-2-hydroxy-6-methyl-phenyl)-1-methyl-imidazo[4,5-b]pyrazine-5-yl]piperidin-4-ol], the IC50 under setting [1] was less than 100 nM.

Consider `COc1nc2nc(-c3c(C)cc(C(F)(F)F)cc3O)n(C)c2nc1CO` [Example 65, 2-(6-(hydroxymethyl)-5-methoxy-1-methyl-1H-imidazo[4,5-b]pyrazin-2-yl)-3-methyl-5-(trifluoromethyl)phenol], for which the IC50 under setting [1] is less than 100 nM.

Regarding `Cn1c(-c2ccc(C(F)(F)F)cc2O)nc2nc(NC3COC3)ccc21` [Example 7, 2-(1-methyl-5-(oxetan-3-ylamino)-1H-imidazo[4,5-b]pyridin-2-yl)-5-(trifluoromethyl)phenol], the IC50 under setting [1] lay in the range of 100 to 1000 nM.

As to `CCn1c(-c2c(C)cc(Cl)cc2O)nc2nc(OC)ccc21` [Example 30, 5-chloro-2-(1-ethyl-5-methoxy-1H-imidazo[4,5-b]pyridin-2-yl)-3-methylphenol], the IC50 under setting [1] was in the range of 100 to 1000 nM.

With `Cc1cc(C(F)(F)F)cc(O)c1-c1nc2nc(N3CC(C)(O)C3)cnc2n1C` [Example 84, 1-(2-(2-hydroxy-6-methyl-4-(trifluoromethyl)phenyl)-1-methyl-1H-imidazo[4,5-b]pyrazin-5-yl)-3-methylazetidin-3-ol], the IC50 under setting [1] is 100 to 1000 nM.

For `Cc1cc(C(F)(F)F)cc(O)c1-c1nc2nc(N[C@@H]3CCC[C@@H](O)C3)ccc2n1C` (single isomer, unassigned) [Example 21, 2-(5-((3-hydroxycyclohexyl)amino)-1-methyl-1H-imidazo[4,5-b]pyridin-2-yl)-3-methyl-5-(trifluoromethyl)phenol], the IC50 under setting [1] was in the range of 100 to 1000 nM.

For the molecule `CN1CC[C@@H](Oc2cnc3c(n2)nc(-c2c(O)cc(Cl)cc2F)n3C)C1` [Example 87, 5-chloro-3-fluoro-2-[1-methyl-5-[(3R)-1-methylpyrrolidin-3-yl]oxy-imidazo[4,5-b]pyrazin-2-yl]phenol], the IC50 under setting [1] is less than 100 nM.

Turning to `Cc1cc(C(F)(F)F)cc(O)c1-c1nc2nc(N3CCOCC3)cnc2n1C` [Example 61, 3-methyl-2-(1-methyl-5-morpholino-1H-imidazo[4,5-b]pyrazin-2-yl)-5-(trifluoromethyl)phenol], the IC50 under setting [1] was less than 100 nM.

As for `Cc1cc(C(F)(F)F)cc(O)c1-c1nc2nc(N(C)C)c(CO)cc2n1C` [Example 67, 2-[5-(dimethylamino)-6-(hydroxymethyl)-1-methyl-imidazo[4,5-b]pyridin-2-yl]-3-methyl-5-(trifluoromethyl)phenol], the half-inhibitory concentration (IC50) under setting [1] was less than 100 nM.

`COc1nc2nc(-c3c(C)cc(Cl)cc3O)n(C)c2cc1CO` [Example 70, 5-chloro-2-[6-(hydroxymethyl)-5-methoxy-1-methyl-imidazo[4,5-b]pyridin-2-yl]-3-methyl-Phenol]: the IC50 under setting [1] was less than 100 nM.

Consider `COc1ccc2c(n1)nc(-c1c(C)cc(C(F)(F)F)cc1O)n2C(C)C` [Example 34, 2-(1-isopropyl-5-methoxy-1H-imidazo[4,5-b]pyridin-2-yl)-3-methyl-5-(trifluoromethyl)phenol], for which the IC50 under setting [1] was 100 to 1000 nM.

Take `Cc1cc(C(F)(F)F)cc(O)c1-c1nc2nc(N3CCC(O)CC3)cnc2n1C` [Example 63, 1-(2-(2-hydroxy-6-methyl-4-(trifluoromethyl)phenyl)-1-methyl-1H-imidazo[4,5-b]pyrazin-5-yl)piperidin-4-ol]: under setting [1], the half-maximal inhibitory concentration (IC50) is less than 100 nM.

As for `Cc1cc(Cl)cc(O)c1-c1nc2nc(N3CC[C@@H]4CCN(C)C[C@@H]43)cnc2n1C` (relative stereo) [Example 77B, 5-chloro-3-methyl-2-[1-methyl-5-[rel-(3aS,7aR)-6-methyl-3,3a,4,5,7,7a-hexahydro-2H-pyrrolo[2,3-c]pyridin-1-yl]imidazo[4,5-b]pyrazin-2-yl]phenol], the IC50 under setting [2] was less than 100 nM.

Consider `Cc1cc(C(F)(F)F)cc(O)c1-c1nc2nc(OCCO)ccc2n1C(C)C` [Example 33, 2-(5-(2-hydroxyethoxy)-1-isopropyl-1H-imidazo[4,5-b]pyridin-2-yl)-3-methyl-5-(trifluoromethyl)phenol], for which the IC50 under setting [1] was in the range of 100 to 1000 nM.

As to `Cc1cc(Cl)cc(O)c1-c1nc2nc(OC3CC(F)(F)C3)ccc2n1C` [Example 39, 5-chloro-2-(5-(3,3-difluorocyclobutoxy)-1-methyl-1H-imidazo[4,5-b]pyridin-2-yl)-3-methylphenol], the half-inhibitory concentration (IC50) (Homo sapiens, 3 h) is 100 to 1000 nM.

Regarding `Cc1cc(Cl)cc(O)c1-c1nc2nc(O[C@@H]3CCN(C)C3)cnc2n1C` [Example 58, (R)-5-chloro-3-methyl-2-(1-methyl-5-((1-methylpyrrolidin-3-yl)oxy)-1H-imidazo[4,5-b]pyrazin-2-yl)phenol formate Salt], the concentration for half-maximal inhibition (IC50) under setting [1] is less than 100 nM.

Regarding `CNc1ccc2c(n1)nc(-c1ccc(C(F)(F)F)cc1O)n2C` [Example 4, 2-(1-methyl-5-(methylamino)-1H-imidazo[4,5-b]pyridin-2-yl)-5-(trifluoromethyl)phenol], the half-maximal inhibitory concentration (IC50) under setting [1] lay in the range of 100 to 1000 nM.

Regarding `Cc1cc(Cl)cc(O)c1-c1nc2nc(N3CCC4CCN(C)CC43)cnc2n1C` (racemic) [Example 76, 5-chloro-3-methyl-2-[1-methyl-5-(6-methyl-3,3a,4,5,7,7a-hexahydro-2H-pyrrolo[2,3-c]pyridin-1-yl)imidazo[4,5-b]pyrazin-2-yl]phenol], the half-maximal inhibitory concentration (IC50) under setting [1] is less than 100 nM.

With `Cn1c(-c2ccc(C(F)(F)F)cc2O)nc2nc(NCCO)ccc21` [Example 1, 2-(5-((2-hydroxyethyl)amino)-1-methyl-1H-imidazo[4,5-b]pyridin-2-yl)-5-(trifluoromethyl)phenol], the IC50 lay within 100 to 1000 nM under setting [1] and 100 to 500 nM (Homo sapiens, 3 h, Table 8 (formula II′/II vs formula III), MSU 200 μg/mL for 3 h, IL-1β release).

Regarding `Cc1cc(C(F)(F)F)cc(O)c1-c1nc2nc(N3CCC(C)(O)CC3)cnc2n1C` [Example 75, 1-[2-[2-hydroxy-6-methyl-4-(trifluoromethyl)phenyl]-1-methyl-imidazo[4,5-b]pyrazin-5-yl]-4-methyl-piperidin-4-ol], the IC50 (Homo sapiens, 3 h) is 100 to 1000 nM.

Regarding `Cc1cc(C(F)(F)F)cc(O)c1-c1nc2nc(NC3CCN(C)C3)ccc2n1C` (single isomer, unassigned) [Example 18B, 3-methyl-2-(1-methyl-5-((1-methylpyrrolidin-3-yl)amino)-1H-imidazo[4,5-b]pyridin-2-yl)-5-(trifluoromethyl)phenol], under setting [2], the IC50 was 100 to 1000 nM.

For the molecule `Cc1cc(Cl)cc(O)c1-c1nc2nc(N3CCN(C)CC3)cnc2n1C` [Example 69, 5-chloro-3-methyl-2-(1-methyl-5-(4-methylpiperazin-1-yl)-1H-imidazo[4,5-b]pyrazin-2-yl)phenol], the IC50 under setting [1] lay in the range of 100 to 1000 nM.

(Values after patent US20240101563A1, “NOVEL COMPOUNDS” (AC Immune SA, priority 2022, published 2024).)
